# Target: T1, TGF-beta receptor type-1 (Homo sapiens, UniProt P36897)
# T1 sequence (P36897 whole entry): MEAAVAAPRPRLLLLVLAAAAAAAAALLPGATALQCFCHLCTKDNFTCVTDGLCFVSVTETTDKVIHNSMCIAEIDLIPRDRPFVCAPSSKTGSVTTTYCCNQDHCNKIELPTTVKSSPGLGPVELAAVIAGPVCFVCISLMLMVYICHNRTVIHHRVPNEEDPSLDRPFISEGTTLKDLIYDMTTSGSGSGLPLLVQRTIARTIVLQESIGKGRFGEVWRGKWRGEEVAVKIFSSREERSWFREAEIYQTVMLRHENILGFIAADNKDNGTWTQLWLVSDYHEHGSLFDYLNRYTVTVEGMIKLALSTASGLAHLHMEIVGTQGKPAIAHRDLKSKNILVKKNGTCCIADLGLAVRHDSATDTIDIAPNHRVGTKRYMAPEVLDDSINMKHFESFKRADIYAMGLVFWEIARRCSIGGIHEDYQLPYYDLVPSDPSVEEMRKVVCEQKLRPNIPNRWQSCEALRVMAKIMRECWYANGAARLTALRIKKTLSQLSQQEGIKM
# Test: In Vitro Assay
# Method: Briefly, the kinase reaction was performed by incubating 2.6 nM of the purified, commercially available human ALK5 (recombinant TGF β1 N-term GST-tagged, 80-end), a final concentration of TGFβ1 peptide 94.5 μM (Promega, T36-58) and ultra-pure ATP (Promega V915B). The ATP concentration was set at the Km value (concentration of substrate which permits the enzyme to achieve half maximal velocity (Vmax)) of ALK5 (5 μM). All reactions/incubations were performed at 25° C. Compound and ALK5 kinase were mixed and incubated for 15 mins. Reactions were initiated by addition of ATP at a final concentration in the assay of 0.83 μM. After an incubation of 150 min, the reaction was stopped, and ADP production detected with ADP-Glo kit according to manufacturer's indications. The assay was performed in 384-well format and was validated using a selection of reference compounds that was tested in 11 point concentration-response curve.
row,Structure (SMILES),IC50 [nM]
1,"Cc1csc(-c2nc3n(c2-c2ccc4ncnn4c2)CCN3)n1 [US20250270215, Example 3]",< 1
2,"Cc1cccc(-c2nc3n(c2-c2cc4cnccc4s2)CC(C(=O)O)N3)n1 (stereo not drawn) [US20250270215, Example 4]",< 1
3,"Clc1cccc(-c2nc3n(c2-c2ccc4ncnn4c2)CCN3)n1 [US20250270215, Example 12]",< 1
4,"Clc1cccc(-c2nc3n(c2-c2cc4cnccc4s2)CCN3)n1 [US20250270215, Example 13]",< 1
5,"Fc1ccc(Cl)cc1-c1nc2n(c1-c1cc3cnccc3s1)CCN2 [US20250270215, Example 14]",< 1

# More lines, now with the values ahead:
row,IC50 [nM],Structure (SMILES)
1,< 1,"Fc1ccc(Cl)cc1-c1nc2n(c1-c1ccc3ncnn3c1)CCN2 [US20250270215, Example 2]"
2,< 1,"Cc1cccc(-c2nc3n(c2-c2ccc4nsnc4c2)CCN3)n1 [US20250270215, Example 17]"
3,< 1,"Cc1cccc(-c2nc3n(c2-c2ccc4nonc4c2)CCN3)n1 [US20250270215, Example 18]"

# Source: BindingDB's records for patent US20250270215 (Chiesi Farmaceutici, 2025)
